How the values were obtained:
[1] = Reaction of cyclic imine Mannich or sulfur fluoride electrophiles with Ac-Tyr-NHMe (HPLC, LC/MS); format: physicochemical
Experimental: To identify an appropriate warhead, we synthesized or purchased a collection of cyclic imines and incubated them with N‐acetyl‐L‐tyrosine methylamide (Ac‐Tyr‐NHMe) in PBS pH 7 at 37 °C (Table 1). The reactivity was quantified by UV integration on HPLC with LC/MS confirmation of product identity (Figure S1). […] The hydrolysis kinetics of imine 2 were characterized at pD 6 and 7.5 by NMR (Figure S3). […] The Mannich reaction mechanism involves a charged iminium intermediate, and the reaction is frequently catalyzed by Bronsted acids.^[ [36], [37] ^]
(§1) Figure 2 Second‐order rate constants for select cyclic imines and a sulfonyl fluoride with aromatic nucleophiles. Reactions were conducted under pseudo‐first‐order conditions with an excess of one reactant, as indicated. The reduction in the concentration of the limiting reactant was measured at various time points by HPLC analysis.
Figure S2: Second order rate constant determination. Reaction of (A) imine 1 (5 mM) with N-Ac-Tyr-NHMe (100 mM) at 37 °C or (B) at R.T. (C) imine 2 (5 mM) with N-Ac-Tyr-NHMe (100 mM) at 37 °C (D) imine 1 (5 mM) with indole-3-butyrate (100 mM) at 37 °C (E) imine 1 (10 mM) with 1 mM 1H-pyrrole-1-propionate (F) iminium 5 (5 mM) with N-Ac-Tyr-NHMe (100 mM) at 37 °C (G) imine 4 (5 mM) with N-Ac-Tyr-NHMe (100 mM) at 37 °C. (H) imine 11 (5 mM) with N-Ac-Tyr-NHMe (100 mM) at 37 °C. (I) imine 13 (5 mM) with N-Ac-Tyr-NHMe (100 mM) at 37 °C.
5.1 General procedure for determination of second order rate constants N-acetyl-l-tyrosine methyl amide (Ac-Tyr-NHMe) (100 mM) was incubated with 5 mM imine 1 in PBS (pH 7) at 37 °C or R.T..

CBX8 chromodomain (ChD) = molecular target: T1, CBX8 chromodomain (ChD) (Homo sapiens, UniProt Q9HC52); experiment: Non-directed labeling of CBX8 ChD with cyclic imine 1 (mass spectrometry); format: binding; details: 1 (50 µM), CBX8 ChD (50 µM), 10 h
T1 construct: CBX chromodomain constructs (addgene plasmid #25158 (CBX2), and #62514 (CBX8, provided by Cheryl Arrowsmith)); 6His; host or cells: E. coli (BL21 CodonPlus RIL or Rosetta 2)
T1 sequence (Q9HC52 11-69 limits assumed): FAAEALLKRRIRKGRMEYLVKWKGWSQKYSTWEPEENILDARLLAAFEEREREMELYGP
Excerpt: Our interest in this chemistry was to improve inhibitors of the chromodomains (ChD) of the CBX family of epigenetic proteins, which have proven challenging to inhibit selectively or with drug‐like small molecules.^[ [47] ^] The CBX ChDs bind a trimethylated lysine (Kme3) side chain on histone tails via cation‐pi interactions with the aromatic cage in the ChD. Our initial hypothesis was that the aromatic cage tryptophan residues would show increased reactivity to Mannich electrophiles, as they function naturally to donate electron density to the electron‐poor methyl groups of Kme3. To test this, 1 (50 µM) was incubated for 10 h with the CBX8 chromodomain (ChD) (50 µM), and labeling was assessed by mass spectrometry (Figure S11).
Figure S11. […] Cyclic imine 1 ([…]) was incubated with 50 µM CBX8 ChD in PBS (pH=7, 0.02% Tween20) buffer at R.T. for 16 hours overnight. Labeled protein was precipitated using cold MeOH:CHCl3 at the ratio of MeOH:CHCl3:Protein = 3:0.5:1, followed with two methanol washes. Protein pellet was air dried after the last wash resuspensed in water containing 0.1% formic acid and 100 mM ammonium acetate. Protein labeling was characterized by LC/MS (Unmodified CBX8 control is indicated in red, and CBX8 labeled with cyclic imine is indicated in green).

[2] = Reaction of imine 1 with 1H-pyrrole-1-propionate (pyrrolated lysine mimic), rate constant; format: physicochemical; details: imine 10 mM, 1 mM 1H-pyrrole-1-propionate
Experimental: as §1, with “analysis. Rates of imine 1 with N‐Ac‐Tyr‐NMe, indole‐3‐butyric acid, and 1H‐pyrrole‐1‐propionic acid and compounds 4, 11, and 13 with N‐Ac‐Tyr‐NMe were measured. […]” for “analysis.”
(§2) To assess the selectivity for tyrosine side chains, we tested the reactivity of 1 with additional compounds, including β‐mercaptoethanol, imidazole, isopropanol, n‐butylamine, propionic acid, 3‐methyl indole, and N‐ethyl pyrrole. […] While partially stable under LC/MS conditions, the N,S‐thioaminal product is readily reversible.^[ [41] ^] […] We determined a second‐order rate constant of 5.9 × 10^−2 M^−1 s^−1 for the reaction of 1 with 1H‐pyrrole‐1‐propionate (Figures 2 and S2). […]

[3] = Reaction of imine 1 with indole-3-butyrate (tryptophan mimic), rate constant; format: physicochemical; details: imine 5 mM, indole-3-butyrate 100 mM, 37 °C
Experimental: as §1, with “analysis. Rates of imine 1 with N‐Ac‐Tyr‐NMe, indole‐3‐butyric acid, and 1H‐pyrrole‐1‐propionic acid and compounds 4, 11, and 13 with N‐Ac‐Tyr‐NMe were measured. […]” for “analysis.”
as §2

[4] = Stability of warheads and inhibitors (solid, PBS, hydrolysis); format: physicochemical
Experimental: (§3) To be suitable for chemical probe and therapeutic applications, the warhead should show good stability. In general, we found the iminolactam warheads to be quite stable. Compound 1 was stable as a solid at room temperature for over 3 months. […] After 24‐h in aqueous buffer, compounds were treated with sodium cyanoborohydride. […] The synthetic strategy of in situ formation of imines by periodate treatment was pursued to avoid concerns of warhead reactivity with the ligand itself to either the peptide backbone or the phenoxyphenyl aryl group. This appears to have been unnecessary, at least for the iminolactam warhead. […] The more reactive ester imine may be forming semi‐stable cyclized products with the amide backbone, which have been observed previously with peptide aldehydes.^[ [51], [52] ^] Due to these issues, we selected compound P1b for further characterization.

[5] = Stability in bovine serum-containing cell media (LC/MS); format: in vitro ADME; details: 20 µM, DMEM with 15% FBS, 24 h, 37 °C
Experimental: as §3
Figure S17. Stability of cyclic imine inhibitors to serum-containing cell culture media. […] The protein fraction was then precipitated with addition of 2 volumes of 1:1 EtOH:acetonitrile and overnight incubation at -20 °C. Samples were centrifuged 16,000 g for 30 minutes. Supernatants were filtered through a 0.5 micro spin filter and evaporated with a speed vacuum. The compounds were resuspended in PBS and analzyed by LC/MS. […] Overlaid spectra of UV at 215 nm are shown and are representative of 3 replicates.

eDHFR L28W = molecular target: T2, eDHFR L28W (Escherichia coli, UniProt P0ABQ4, L28W); experiment: Covalent labeling of eDHFR L28W by LC/MS; format: binding, E. coli; details: 10 µM protein, 10 µM compound, overnight, 37 °C
T2 construct: made in house; host or cells: E. coli (BL21 CodonPlus RIL or Rosetta 2), pET-28b(+)
Excerpt: (§4) Similarly, we prepared eDHFR tyrosine and tryptophan mutants at position 28 to assess labeling with TMP‐Im (Figure 3b). […] We conducted trypsin digestion of the labeled L28Y protein and localized the modification to the intended tyrosine by MS/MS fragmentation (Figure S9A). To assess selectivity over thiols, we tested labeling of the cysteine mutant. […] This labeling was reversed with GSH treatment, which is consistent with the reversibility of thioaminal formation (Figure S10).
(§5) Reactions with thiol mutant L28C were conducted in the presence of 5 mM glutathione and 5 mM TCEP. The observed mass differences of labeled and unlabeled proteins agree with the expected mass change of 428 Da.

eDHFR wt = molecular target: T3, eDHFR wt (Escherichia coli, UniProt P0ABQ4); experiment: Covalent labeling of eDHFR wild type by LC/MS; format: binding, E. coli; details: 10 µM protein, 10 µM compound, overnight, 37 °C
T3 construct: made in house; host or cells: E. coli (BL21 CodonPlus RIL or Rosetta 2), pET-28b(+)

eDHFR L28C = molecular target: T4, eDHFR L28C (Escherichia coli, UniProt P0ABQ4, L28C); experiment: Covalent labeling of eDHFR L28C by LC/MS; format: binding, E. coli
T4 construct: made in house; host or cells: E. coli (BL21 CodonPlus RIL or Rosetta 2), pET-28b(+)
Excerpt: as §4, §5
(§6) Figure S10. Ligand directed labeling in the presence of thiols. A) TMP-Im (10 µM) was incubated with eDHFR L28Y (10 µM) overnight at RT in the absence (left) or presence of 5 mM GSH with 5 mM TCEP. B) TMP-Im (10 µM) was incubated with eDHFR L28C (10 µM) overnight in the absence (left and center) or presence of 5 mM GSH with 5 mM TCEP. For the center panel, after the labeling reaction, GSH (5 mM) was added and allowed to incubated overnight.

eDHFR L28Y = molecular target: T5, eDHFR L28Y (Escherichia coli, UniProt P0ABQ4, L28Y); experiment: Covalent labeling of eDHFR L28Y by LC/MS; format: binding, E. coli
T5 construct: made in house; host or cells: E. coli (BL21 CodonPlus RIL or Rosetta 2), pET-28b(+)
Excerpt: as §4, §5
as §6, with “A) TMP-Im (10 µM) was incubated with eDHFR L28Y (10 µM) overnight at RT in the absence (left) or presence of 5 mM GSH with 5 mM TCEP.” left out

[6] = electrophile 5 mM, N‐acetyl‐l‐tyrosine methyl amide 100 mM, PBS pH 7, 37 °C

In the case of O=C(O)c1ccc(OS(=O)(=O)F)cc1 [compound 14, reference compound], the “reactivity (t1/2)” value [1, 6] is reported as “∼48 h”.

In the case of O=C1C=NC2CCCCC2N1 (stereo not shown) [compound 1], the “labeling of CBX8 ChD by imine alone” value (CBX8 chromodomain (ChD)) is reported as “distribution of unlabeled, singly, doubly, and triply labeled protein indicative of random labeling”, the “second‐order rate constant k2 with 1H‐pyrrole‐1‐propionate” value [2] is reported as 0.059 M⁻¹ s⁻¹ and the “reactivity (t1/2)” value [1, 6] is reported as 8 ± 0.3 h. The “second‐order rate constant k2 with N‐Ac‐Tyr‐NHMe” value ([1]; pseudo‐first‐order conditions, PBS pH 7, 37 °C) was 0.00024 M⁻¹ s⁻¹, the “second‐order rate constant k2 with indole‐3‐butyrate” value [3] was 0.00011 M⁻¹ s⁻¹ and the “stable as a solid at room temperature” value ([4]; solid, room temperature) was “over 3 months”.

With COc1cc(Cc2cnc(N)nc2N)cc(OC)c1OCCCCN1CCN=CC1=O [TMP‐Im] the “stability in bovine serum‐containing cell media” value [5] was “minimal loss of compounds to the precipitated protein fraction or degradation”, the “stability in bovine serum‐containing cell media” value ([5]; listed as TMP-Im) was “no degradation or loss to the protein fraction” and the “covalent labeling of eDHFR L28W” value (eDHFR L28W) was “covalent labeling”. The “covalent labeling of eDHFR wild type” value (eDHFR wt) was “no labeling”, the “labeling of eDHFR L28C cysteine mutant” value (eDHFR L28C; absence of additional thiols, TCEP as reductant) was “A small amount of labeling” and the “labeling of eDHFR L28C cysteine mutant” value (eDHFR L28C; in the presence of 5 mM glutathione (GSH) and 5 mM TCEP) was “no detectable labeled protein”. For the same compound, the “covalent labeling of eDHFR L28Y” value (eDHFR L28Y; 10 µM protein, 10 µM compound, overnight, 37 °C) was “covalent labeling”, the “effect of GSH on labeling of eDHFR L28Y” value (eDHFR L28Y; presence of 5 mM GSH) was “only a slight reduction in reaction conversion” and the “stability to long‐term incubation in PBS” value ([4]; 24 h in aqueous buffer, then sodium cyanoborohydride, mass spectrometry) was “stability over the 24 h”.

With 2-hydroxyquinoxaline [compound 4] the “reactivity (t1/2)” value ([1]; buffer, pH 7) was 6.1 ± 0.2 h.

For O=S1(=O)N=Cc2ccccc21 [compound 11], the “reactivity (t1/2)” value [1, 6] was 2.4 ± 0.1 h.

In the case of O=C1C=N[C@H]2CCCC[C@@H]2O1 [compound 2], the “reactivity (t1/2)” value ([1]; electrophile 5 mM, Ac-Tyr-NHMe 100 mM, PBS pH 7, 37 °C, competing hydrolysis) is reported as “∼40 mins ^b)”.
